For one assay, the system named is cytochrome c. On the set-up: method as in Rennie et al., 2017. The following applies: relative to sclx4, ref Rennie et al., 2017; cited from earlier work.
Assay [1] addresses PAF (Penicillium antifungal protein) (Penicillium chrysogenum, UniProt Q01701). As to the kind of experiment: Isothermal titration calorimetry of PAF–sclxn complexation. It is filed as binding. The following applies: ITC, median (2.5% quantile, 97.5% quantile). The procedure: PAF samples were dissolved in 10 mM sodium phosphate pH 6.0. The same buffer was used to dilute stocks of sclx4 (7.1 mM, PAF 0.5 mM), sclx6 (3.6 mM, PAF 0.5 mM) and sclx8 (2.5 mM, PAF 0.3 mM) to the required concentration. Samples were degassed prior to the titration. Measurements were made at 25°C using a Microcal ITC-200 instrument. Titrations were performed in duplicate with similar trends between each replicate. A single replicate from each calixarene was used for model fitting. Separate titrations of each calixarene into buffer confirmed that the heats of dilution were small, exothermic and approximately constant.
NITPIC (Keller et al., 2012[▸]) was used for baseline correction and integration of the thermograms. Pytc (Duvvuri et al., 2018[▸]) was used to perform model fitting and parameter estimation. The system of equations relating the independent variables of the model (total concentrations) to the experimental observations (heat generated during injections) for the single-site and bidentate-ligand models are as follows.
Single-site model, [drawing 1] [drawing 2] [drawing 3] where [P T]i is the total cell concentration of protein at the ith injection (independent variable), [L T]i is the total cell concentration of ligand at the ith injection (independent variable), K 1 is the equilibrium association constant (fit parameter), ΔH is the enthalpy (fit parameter) associated with K, V cell is the volume of the cell, vi is the volume of the ith injection, qi is the heat generated from the ith injection (dependent variable) and q dil is the heat of dilution (fit parameter, assumed to be constant)
Bidentate-ligand model, [drawing 4] [drawing 5] [drawing 6] where K 1 and K 2 are the microscopic equilibrium association constants (fit parameters), ΔH 1 and ΔH 2 are the enthalpies (fit parameters) associated with K 1 and K 2, respectively
The expressions for mass balance of the protein and ligand can be represented by equations (1) or (4). Equation (2) or (5) can be used to define the equilibrium constants. For the bidentate ligand model, equation (5) was solved numerically (the Levenberg–Marquardt algorithm) to yield the free-protein ([P]i) and free-ligand ([L]i) concentrations. The free concentrations were used to compute the concentrations of the other states via the equilibrium equations. The heat generated from a given injection was determined using either equations (3) or (6). Parameters were constrained to physically reasonable bounds (e.g. K 1 and K 2 values between 10^2 and 10^10 M ^−1) and best-fits were obtained by maximum likelihood starting from a range of initial estimates. Parameter errors and correlations were estimated using a Bayesian approach (Markov chain Monte Carlo simulations). The error for each integrated heat was determined using NITPIC (Keller et al., 2012[▸]).
Isothermal titration calorimetry was used to characterize the PAF–sclxn binding affinities and stoichiometries (Fig. 7 ▸). The data were fitted to a single-site or a bidentate-ligand model. The latter model describes a bidentate ligand that can bind two protein molecules and was necessary to describe the obviously biphasic data for sclx8. The choice of this model is supported by the observation of a PAF–sclx8–PAF dimer in the crystal structure, and by the spectral broadening in the NMR experiments. All of the fit parameters were well determined by the data (Table 1 ▸), with parameter errors assessed by Bayesian methods (Patil et al., 2010[▸]).
On the technique in general: Isothermal titration calorimetry measures the heat released or taken up as one component is titrated into another.

The mark [2] stands for this setting: single-site model, 10 mM sodium phosphate pH 6.0, 25°C.
The mark [3] stands for this setting: bidentate-ligand model, binding the first molecule of PAF (K1), pH 6.0, 25°C.
Setting [4] is: bidentate-ligand model, binding the second molecule of PAF (K2), pH 6.0, 25°C.
Setting [5] is: bidentate-ligand model, first molecule of PAF (ΔH1), pH 6.0, 25°C.
Setting [6] is: bidentate-ligand model, first molecule of PAF, pH 6.0, 25°C.
[7] abbreviates: bidentate-ligand model, second molecule of PAF (ΔH2), pH 6.0, 25°C.
[8] abbreviates: bidentate-ligand model, second molecule of PAF, pH 6.0, 25°C.

pKd: −log10 of the molar value.

Chain of PAF (Penicillium antifungal protein) (Q01701 entry or part of it): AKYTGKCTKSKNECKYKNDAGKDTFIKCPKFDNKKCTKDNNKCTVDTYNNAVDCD

In the case of `O=P(O)(O)c1cc2c(O)c(c1)Cc1cc(P(=O)(O)O)cc(c1O)Cc1cc(P(=O)(O)O)cc(c1O)Cc1cc(P(=O)(O)O)cc(c1O)Cc1cc(P(=O)(O)O)cc(c1O)Cc1cc(P(=O)(O)O)cc(c1O)C2` [pclx6, phosphonato-calix[6]arene], in the assay with cytochrome c, the “increase in affinity (with respect to sclx4)” value is reported as “approximately tenfold”.

Turning to `O=S(=O)(O)c1cc2c(O)c(c1)Cc1cc(S(=O)(=O)O)cc(c1O)Cc1cc(S(=O)(=O)O)cc(c1O)Cc1cc(S(=O)(=O)O)cc(c1O)C2` [sclx4], in assay [1] (setting [2]), the negative-log Kd (pKd) (usually the negative decadic logarithm of the Kd, by convention in mol/L) is 3.97; the TΔS is −5.6 (0.2, 0.2) kJ mol^−1; the ΔH is recorded as −16.9 (0.1, 0.1) kJ mol^−1.

As for `O=S(=O)(O)c1cc2c(O)c(c1)Cc1cc(S(=O)(=O)O)cc(c1O)Cc1cc(S(=O)(=O)O)cc(c1O)Cc1cc(S(=O)(=O)O)cc(c1O)Cc1cc(S(=O)(=O)O)cc(c1O)Cc1cc(S(=O)(=O)O)cc(c1O)C2` [sclx6], the figures for the negative logarithm of the Kd (pKd) in assay [1] (setting [3]), in assay [1] (setting [4]) and in assay [1] (setting [2]) were 4.32, 4.34 and 4.81, respectively. The ΔH in assay [1] (setting [5]) is listed as −9.2 (0.1, 0.2) kJ mol^−1; in assay [1] (setting [7]), −20.1 (0.4, 0.4) kJ mol^−1; in assay [1] (setting [2]) it was −28.2 (0.2, 0.1) kJ mol^−1. Besides, the TΔS in assay [1] (setting [6]) is on record as −15.4 (0.4, 0.3) kJ mol^−1; in assay [1] (setting [8]), −4.6 (0.6, 0.6) kJ mol^−1; in assay [1] (setting [2]), −0.7 (0.2, 0.2) kJ mol^−1.

Regarding `O=S(=O)(O)c1cc2c(O)c(c1)Cc1cc(S(=O)(=O)O)cc(c1O)Cc1cc(S(=O)(=O)O)cc(c1O)Cc1cc(S(=O)(=O)O)cc(c1O)Cc1cc(S(=O)(=O)O)cc(c1O)Cc1cc(S(=O)(=O)O)cc(c1O)Cc1cc(S(=O)(=O)O)cc(c1O)Cc1cc(S(=O)(=O)O)cc(c1O)C2` [sclx8, Sulfonato-calix[8]arene], the pKd in assay [1] (setting [3]) is 4.97; in assay [1] (setting [4]), 4.47. The ΔH was −3.5 (0.3, 0.3) kJ mol^−1 in assay [1] (setting [5]) and −36.0 (1.7, 1.4) kJ mol^−1 in assay [1] (setting [7]). The TΔS in assay [1] (setting [6]) is reported as −24.8 (0.3, 0.3) kJ mol^−1; in assay [1] (setting [8]), 10.5 (1.8, 2.1) kJ mol^−1.
